# Results taken from the supplement of paper PMC10307832.
# Tests used:
# Assay in all cases: relative viability (nuclei count vs DMSO), 5 days (fraction); higher = more cells survive
# OSI-027 + Bortezomib = compound: COc1cccc2cc(-c3nc([C@H]4CC[C@H](C(=O)O)CC4)n4ncnc(N)c34)[nH]c12 [OSI-027] + CC(C)C[C@H](NC(=O)[C@H](Cc1ccccc1)NC(=O)c1cnccn1)B(O)O [Bortezomib] (partner 0.002 µM)
# Method in brief: (§1)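 Lung cancer cell lines in 1536-well plates were dosed by pin tool the day after seeding, either with one drug alone or with a fixed anchor-drug dose plus five library-drug doses (not always all listed) in √10 steps. After 5 days, cells were fixed and their nuclei stained in one step (final 0.05% Triton X-100, 1% formaldehyde, 1 ug/ml Hoechst), then counted on 4× images. Relative viability is the nuclei count in treated wells divided by that in vehicle wells. Values are medians of duplicate plates.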
# Vemurafenib + AZD7762 = compound: CCCS(=O)(=O)Nc1ccc(F)c(C(=O)c2c[nH]c3ncc(-c4ccc(Cl)cc4)cc23)c1F [Vemurafenib] + NC(=O)Nc1cc(-c2cccc(F)c2)sc1C(=O)N[C@H]1CCCNC1 [AZD7762] (partner 0.2 µM)
# Method in brief: as §1
# Vemurafenib + Bortezomib = compound: CCCS(=O)(=O)Nc1ccc(F)c(C(=O)c2c[nH]c3ncc(-c4ccc(Cl)cc4)cc23)c1F [Vemurafenib] + CC(C)C[C@H](NC(=O)[C@H](Cc1ccccc1)NC(=O)c1cnccn1)B(O)O [Bortezomib] (partner 0.002 µM)
# Method in brief: as §1
# Alpelisib + Olaparib = compound: Cc1nc(NC(=O)N2CCC[C@H]2C(N)=O)sc1-c1ccnc(C(C)(C)C(F)(F)F)c1 [Alpelisib] + O=C(c1cc(Cc2n[nH]c(=O)c3ccccc23)ccc1F)N1CCN(C(=O)C2CC2)CC1 [Olaparib] (partner 8 µM)
# Method in brief: as §1
Cell Line,relative viability (OSI-027 + Bortezomib; first compound 0.01 µM),relative viability (OSI-027 + Bortezomib; first compound 0.03162 µM),relative viability (OSI-027 + Bortezomib; first compound 0.1 µM),relative viability (OSI-027 + Bortezomib; first compound 0.3162 µM),relative viability (OSI-027 + Bortezomib; first compound 1 µM),relative viability (Vemurafenib + AZD7762; first compound 0.03162 µM),relative viability (Vemurafenib + AZD7762; first compound 0.1 µM),relative viability (Vemurafenib + AZD7762; first compound 0.3162 µM),relative viability (Vemurafenib + AZD7762; first compound 1 µM),relative viability (Vemurafenib + Bortezomib; first compound 0.03162 µM),relative viability (Vemurafenib + Bortezomib; first compound 0.1 µM),relative viability (Vemurafenib + Bortezomib; first compound 0.3162 µM),relative viability (Vemurafenib + Bortezomib; first compound 1 µM),relative viability (Alpelisib + Olaparib; first compound 0.04 µM),relative viability (Alpelisib + Olaparib; first compound 0.1265 µM),relative viability (Alpelisib + Olaparib; first compound 0.4 µM),relative viability (Alpelisib + Olaparib; first compound 1.265 µM),relative viability (Alpelisib + Olaparib; first compound 4 µM)
NCI-H650,0.738,1.05,0.431,0.549,0.406,0.854,1.03,0.419,0.906,0.668,0.899,0.443,0.423,0.391,0.409,0.425,0.378,0.317
HCC-366,1.18,1.2,1.03,1.07,0.733,0.305,0.213,–,0.259,1,1.05,–,1.06,0.338,0.287,0.374,0.217,0.16
EKVX,1.03,0.942,1.11,0.972,0.649,0.689,–,0.683,0.6,0.895,–,1.03,1.05,0.856,0.897,1.1,0.753,0.512
NCI-H1792,1.03,0.688,0.858,0.899,0.212,0.548,0.44,–,0.593,0.875,0.951,0.721,0.957,0.48,0.528,0.68,0.36,0.205
NCI-H1734,0.958,0.809,0.852,0.834,0.47,0.568,0.533,0.371,0.559,0.855,1.01,0.709,0.815,0.584,0.328,0.61,0.425,0.35
CAL-12T,0.814,1.02,0.713,0.754,0.729,0.594,0.617,0.535,0.593,0.835,–,–,0.974,0.771,0.774,0.767,0.726,0.745
NCI-H2347,0.857,0.904,0.741,0.601,0.493,0.744,0.744,0.664,0.884,0.737,0.79,0.712,1.02,0.632,0.61,0.89,0.481,0.515
NCI-H3122,1.11,1.04,1.11,1.02,0.87,0.988,0.895,0.922,1.09,0.989,1.01,1.04,1.07,0.644,0.657,0.668,0.647,0.508
NCI-H23,0.967,0.834,0.944,1.02,0.656,0.203,0.178,0.154,0.21,1,1.01,1.15,1.29,0.254,0.269,0.321,0.232,0.289
ABC-1,0.284,0.366,0.331,0.405,0.27,0.668,0.775,0.622,0.813,0.268,0.302,0.267,0.287,0.775,0.596,1.01,0.885,0.804
HCC-15,1.07,0.988,1,1.01,0.71,1.05,1.22,1.17,1.1,0.958,1.01,0.848,0.844,0.685,0.765,0.738,0.616,0.509
NCI-H1755,1,0.96,0.983,0.89,0.556,0.483,0.459,0.328,0.408,0.877,0.878,0.712,0.931,0.928,0.892,0.917,0.818,0.788
LCLC-97TM1,0.271,0.554,0.369,0.154,0.193,0.286,0.298,0.326,0.342,0.495,0.587,0.528,0.742,0.379,0.396,0.304,0.197,0.116
NCI-H1703,0.361,0.302,0.238,0.233,0.187,0.12,–,–,0.101,0.527,0.438,0.32,0.257,0.415,0.335,0.296,0.204,0.15
NCI-H2085,1.11,0.965,0.95,0.977,0.853,0.893,0.804,0.928,0.997,1.05,0.91,0.914,0.847,0.754,0.75,0.794,0.733,0.711
NCI-H647,0.992,0.981,1,0.884,0.432,0.433,0.541,0.26,0.432,0.881,0.96,0.739,0.874,0.534,0.485,0.569,0.487,0.436
BEN,0.653,0.83,0.488,0.379,0.389,0.566,0.761,0.392,0.638,0.768,0.933,0.351,0.554,1.18,1.18,1.22,1.02,0.879

Cell Line,relative viability (OSI-027 + Bortezomib; first compound 0.01 µM),relative viability (OSI-027 + Bortezomib; first compound 0.03162 µM),relative viability (OSI-027 + Bortezomib; first compound 0.1 µM),relative viability (OSI-027 + Bortezomib; first compound 0.3162 µM),relative viability (OSI-027 + Bortezomib; first compound 1 µM),relative viability (Vemurafenib + AZD7762; first compound 0.03162 µM),relative viability (Vemurafenib + AZD7762; first compound 0.1 µM),relative viability (Vemurafenib + AZD7762; first compound 0.3162 µM),relative viability (Vemurafenib + AZD7762; first compound 1 µM),relative viability (Vemurafenib + Bortezomib; first compound 0.03162 µM),relative viability (Vemurafenib + Bortezomib; first compound 0.1 µM),relative viability (Vemurafenib + Bortezomib; first compound 0.3162 µM),relative viability (Vemurafenib + Bortezomib; first compound 1 µM),relative viability (Alpelisib + Olaparib; first compound 0.04 µM),relative viability (Alpelisib + Olaparib; first compound 0.1265 µM),relative viability (Alpelisib + Olaparib; first compound 0.4 µM),relative viability (Alpelisib + Olaparib; first compound 1.265 µM),relative viability (Alpelisib + Olaparib; first compound 4 µM)
201T,1.14,1.15,1.07,1.12,1.1,0.652,0.515,0.604,0.617,1.07,0.998,1.15,1.17,0.82,0.81,0.859,0.774,0.679
NCI-H2405,0.982,1.04,0.872,0.866,0.425,0.709,0.696,–,0.721,0.925,0.995,–,0.829,0.905,0.864,0.898,0.657,0.71
RERF-LC-KJ,1.18,0.948,1.03,0.808,0.511,0.874,1.01,0.663,1.08,1.04,1.06,1.06,1.19,0.878,0.894,0.84,0.655,0.74
NCI-H596,0.869,1.02,0.884,0.897,0.892,1.11,1.05,0.801,1.02,1.05,0.896,0.802,1.05,0.705,0.701,0.778,0.491,0.438
NCI-H1993,1.11,0.898,0.788,0.625,0.542,0.657,–,0.804,0.966,1.02,–,1.25,1.03,1.01,0.868,1.13,0.585,0.735
EPLC-272H,0.871,0.978,0.764,0.849,0.688,0.251,0.166,0.156,0.218,0.857,0.749,0.812,0.867,0.936,0.838,0.75,0.393,0.485
NCI-H1915,1.04,0.995,1.04,0.968,0.898,0.644,0.728,0.587,0.612,0.894,0.995,0.886,0.91,0.264,0.288,0.303,0.236,0.235
LC-2-ad,1.03,0.984,1.05,1.09,0.662,0.831,0.615,0.749,0.818,0.918,0.956,0.829,0.976,0.718,0.379,0.78,0.733,0.651
NCI-H2126,1.02,1.13,1.05,0.989,0.87,0.971,0.997,0.99,1.1,1.07,1.07,1.09,1.14,0.887,0.864,0.871,0.76,0.659
HCC-44,0.929,1,0.874,0.838,0.413,0.945,0.975,1.2,1.03,0.861,0.993,0.824,0.861,0.979,0.943,1.07,0.979,0.936
HOP-62,0.679,0.726,0.377,0.65,0.609,0.551,0.558,0.395,0.668,0.814,0.868,0.648,1.07,0.533,0.435,0.532,0.282,0.401
LCLC-103H,1.24,1.16,1.13,0.928,1,0.757,0.741,0.617,0.694,0.975,1.04,0.843,1.09,0.766,0.787,0.744,0.603,0.497
HARA,1.12,1.1,1.15,0.979,0.67,0.0775,0.292,0.168,0.37,1.08,–,0.603,1.12,0.696,0.64,0.742,0.453,0.452
NCI-H2087,0.82,0.879,0.938,0.859,0.412,1.12,1.31,1.09,1.19,0.759,0.701,–,0.753,0.557,0.514,0.653,0.483,0.444
HCC-78,0.611,0.428,0.454,0.344,0.35,0.513,0.493,0.65,0.777,0.433,0.439,0.674,0.506,0.694,0.825,0.857,0.44,0.521
NCI-H1437,0.43,0.409,0.538,0.487,0.258,1.14,1.04,0.943,1.09,0.439,0.411,0.622,0.541,0.64,0.684,0.679,0.627,0.644
